Experimental data as given in PubChem BioAssay AID2060615 (Molecular Pharmacology Branch, DTP, NCI, 2025).

System: 496974-208-R-J2-PDC complex spheroids, growth % test/control
Assay: Anticancer human tumor 496974-208-R-J2-PDC patient-derived pancreatic carcinoma cell line growth inhibition [CLK]
Conditions: for IC50: curve of first compound; for viability, T/C: stronger effect = lower value
Outline: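 Patient-derived tumor cells grown as complex spheroids with HUVEC endothelial cells and mesenchymal stem cells, treated with drug combinations. Concentrations descend in half-log steps from near clinical Cmax, or from 10 microM if Cmax unknown.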

[1] = second compound 0.0316 µM, first compound 0.00949 µM
[2] = second compound 0.0316 µM, first compound 0.03 µM
[3] = second compound 0.0316 µM, first compound 0.0949 µM
[4] = second compound 0.0316 µM, first compound 0.3 µM
[5] = second compound 0.1 µM, first compound 0.00949 µM
[6] = second compound 0.1 µM, first compound 0.03 µM
[7] = second compound 0.1 µM, first compound 0.0949 µM
[8] = second compound 0.1 µM, first compound 0.3 µM
[9] = second compound 0.316 µM, first compound 0.00949 µM
[10] = second compound 0.316 µM, first compound 0.03 µM
[11] = second compound 0.316 µM, first compound 0.0949 µM
[12] = second compound 0.316 µM, first compound 0.3 µM
[13] = second compound 1 µM, first compound 0.00949 µM
[14] = second compound 1 µM, first compound 0.03 µM
[15] = second compound 1 µM, first compound 0.0949 µM
[16] = second compound 1 µM, first compound 0.3 µM
[17] = second compound 3.16 µM, first compound 0.00949 µM
[18] = second compound 3.16 µM, first compound 0.03 µM
[19] = second compound 3.16 µM, first compound 0.0949 µM
[20] = second compound 3.16 µM, first compound 0.3 µM
[21] = second compound 10 µM, first compound 0.00949 µM
[22] = second compound 10 µM, first compound 0.03 µM
[23] = second compound 10 µM, first compound 0.0949 µM
[24] = second compound 10 µM, first compound 0.3 µM
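Note: spheroids exposed to the drugs for 7 days before readout.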
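Throughout, for viability, T/C: 100% = DMSO vehicle control wells.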

Which results are given for `C=CC(=O)Nc1cc(Nc2nccc(-c3cn(C)c4ccccc34)n2)c(OC)cc1N(C)CCN(C)C` + CN1CCN(c2cc(C(=O)Nc3cc4cc(-c5cnn(C)c5)ccc4cn3)ccn2)CC1?
IC50 (second compound 0.0316 µM): > 300 nM; IC50 (second compound 0.1 µM): > 300 nM; IC50 (second compound 0.316 µM): < 0.949 nM; IC50 (second compound 1 µM): < 0.949 nM; IC50 (second compound 3.16 µM): < 0.949 nM; IC50 (second compound 10 µM): < 0.949 nM; viability, T/C (second compound 0.0316 µM, first compound 0.000949 µM): 104%; viability, T/C (second compound 0.0316 µM, first compound 0.003 µM): 100%; viability, T/C [1]: 94.9%; viability, T/C [2]: 86.5%; viability, T/C [3]: 85.7%; viability, T/C [4]: 60.6%; viability, T/C (second compound 0.1 µM, first compound 0.000949 µM): 77.1%; viability, T/C (second compound 0.1 µM, first compound 0.003 µM): 86.2%; viability, T/C [5]: 80.8%; viability, T/C [6]: 74.3%; viability, T/C [7]: 70.8%; viability, T/C [8]: 50%; viability, T/C (second compound 0.316 µM, first compound 0.000949 µM): 6.91%; viability, T/C (second compound 0.316 µM, first compound 0.003 µM): 7.98%; viability, T/C [9]: 5.85%; viability, T/C [10]: 4.61%; viability, T/C [11]: 6.12%; viability, T/C [12]: 4.42%; viability, T/C (second compound 1 µM, first compound 0.000949 µM): 0.32%; viability, T/C (second compound 1 µM, first compound 0.003 µM): 0.55%; viability, T/C [13]: 1.29%; viability, T/C [14]: 0.51%; viability, T/C [15]: 2.8%; viability, T/C [16]: 0.65%; viability, T/C (second compound 3.16 µM, first compound 0.000949 µM): 0.42%; viability, T/C (second compound 3.16 µM, first compound 0.003 µM): 1.96%; viability, T/C [17]: 1.14%; viability, T/C [18]: 0.42%; viability, T/C [19]: 2.24%; viability, T/C [20]: 1.33%; viability, T/C (second compound 10 µM, first compound 0.000949 µM): 0.31%; viability, T/C (second compound 10 µM, first compound 0.003 µM): 0.31%; viability, T/C [21]: 0.31%; viability, T/C [22]: 0.85%; viability, T/C [23]: 2.25%; viability, T/C [24]: 2.99%

What does the source list for `O=c1[nH]cc(F)c(=O)[nH]1` + CN1CCN(c2cc(C(=O)Nc3cc4cc(-c5cnn(C)c5)ccc4cn3)ccn2)CC1?
IC50 (second compound 0.0316 µM): 5870 nM; IC50 (second compound 0.1 µM): 4190 nM; IC50 (second compound 0.316 µM): < 31.6 nM; IC50 (second compound 1 µM): < 31.6 nM; IC50 (second compound 3.16 µM): < 31.6 nM; IC50 (second compound 10 µM): < 31.6 nM; viability, T/C (second compound 0.0316 µM, first compound 0.0316 µM): 108%; viability, T/C (second compound 0.0316 µM, first compound 0.1 µM): 99.2%; viability, T/C (second compound 0.0316 µM, first compound 0.316 µM): 99.3%; viability, T/C (second compound 0.0316 µM, first compound 1 µM): 76.8%; viability, T/C (second compound 0.0316 µM, first compound 3.16 µM): 60.1%; viability, T/C (second compound 0.0316 µM, first compound 10 µM): 42%; viability, T/C (second compound 0.1 µM, first compound 0.0316 µM): 83.5%; viability, T/C (second compound 0.1 µM, first compound 0.1 µM): 83.7%; viability, T/C (second compound 0.1 µM, first compound 0.316 µM): 76.3%; viability, T/C (second compound 0.1 µM, first compound 1 µM): 68.1%; viability, T/C (second compound 0.1 µM, first compound 3.16 µM): 54.2%; viability, T/C (second compound 0.1 µM, first compound 10 µM): 37.4%; viability, T/C (second compound 0.316 µM, first compound 0.0316 µM): 7.23%; viability, T/C (second compound 0.316 µM, first compound 0.1 µM): 6.68%; viability, T/C (second compound 0.316 µM, first compound 0.316 µM): 5.78%; viability, T/C (second compound 0.316 µM, first compound 1 µM): 6.41%; viability, T/C (second compound 0.316 µM, first compound 3.16 µM): 6.09%; viability, T/C (second compound 0.316 µM, first compound 10 µM): 6.36%; viability, T/C (second compound 1 µM, first compound 0.0316 µM): 0.41%; viability, T/C (second compound 1 µM, first compound 0.1 µM): 0.51%; viability, T/C (second compound 1 µM, first compound 0.316 µM): 0.5%; viability, T/C (second compound 1 µM, first compound 1 µM): 0.43%; viability, T/C (second compound 1 µM, first compound 3.16 µM): 0.32%; viability, T/C (second compound 1 µM, first compound 10 µM): 0.55%; viability, T/C (second compound 3.16 µM, first compound 0.0316 µM): 0.44%; viability, T/C (second compound 3.16 µM, first compound 0.1 µM): 0.46%; viability, T/C (second compound 3.16 µM, first compound 0.316 µM): 0.41%; viability, T/C (second compound 3.16 µM, first compound 1 µM): 0.57%; viability, T/C (second compound 3.16 µM, first compound 3.16 µM): 0.41%; viability, T/C (second compound 3.16 µM, first compound 10 µM): 2.84%; viability, T/C (second compound 10 µM, first compound 0.0316 µM): 0.24%; viability, T/C (second compound 10 µM, first compound 0.1 µM): 0.41%; viability, T/C (second compound 10 µM, first compound 0.316 µM): 0.35%; viability, T/C (second compound 10 µM, first compound 1 µM): 0.27%; viability, T/C (second compound 10 µM, first compound 3.16 µM): 1.4%; viability, T/C (second compound 10 µM, first compound 10 µM): 1.8%

Which results are given for `NC(=O)C(=Cn1cnc(-c2cc(C(F)(F)F)cc(C(F)(F)F)c2)n1)c1cncnc1` + CNC(=O)c1ccc(Nc2nc(OC3CCCC3)c3c(-c4ccc5nc(C)oc5c4)c[nH]c3n2)c(OC)c1?
IC50 (second compound 0.0316 µM): 158 nM; IC50 (second compound 0.1 µM): 81.6 nM; IC50 (second compound 0.316 µM): < 9.49 nM; IC50 (second compound 1 µM): < 9.49 nM; IC50 (second compound 3.16 µM): < 9.49 nM; IC50 (second compound 10 µM): < 9.49 nM; viability, T/C [1]: 83.3%; viability, T/C [2]: 77.3%; viability, T/C [3]: 65.1%; viability, T/C [4]: 31.4%; viability, T/C (second compound 0.0316 µM, first compound 0.949 µM): 20.5%; viability, T/C (second compound 0.0316 µM, first compound 3 µM): 14.1%; viability, T/C [5]: 68.5%; viability, T/C [6]: 56.3%; viability, T/C [7]: 52%; viability, T/C [8]: 27.9%; viability, T/C (second compound 0.1 µM, first compound 0.949 µM): 20.9%; viability, T/C (second compound 0.1 µM, first compound 3 µM): 16.8%; viability, T/C [9]: 47.2%; viability, T/C [10]: 48.6%; viability, T/C [11]: 43.9%; viability, T/C [12]: 21.4%; viability, T/C (second compound 0.316 µM, first compound 0.949 µM): 18.8%; viability, T/C (second compound 0.316 µM, first compound 3 µM): 12.4%; viability, T/C [13]: 46.6%; viability, T/C [14]: 40.6%; viability, T/C [15]: 29.8%; viability, T/C [16]: 16.1%; viability, T/C (second compound 1 µM, first compound 0.949 µM): 14.3%; viability, T/C (second compound 1 µM, first compound 3 µM): 9.67%; viability, T/C [17]: 44.9%; viability, T/C [18]: 28.7%; viability, T/C [19]: 20.2%; viability, T/C [20]: 12.1%; viability, T/C (second compound 3.16 µM, first compound 0.949 µM): 10.8%; viability, T/C (second compound 3.16 µM, first compound 3 µM): 5.23%; viability, T/C [21]: 39.4%; viability, T/C [22]: 28.8%; viability, T/C [23]: 19.1%; viability, T/C [24]: 9.35%; viability, T/C (second compound 10 µM, first compound 0.949 µM): 8.25%; viability, T/C (second compound 10 µM, first compound 3 µM): 3.76%
